From ChEMBL document CHEMBL1137833, “Synthesis and biological evaluation of stilbene-based pure estrogen antagonists” (Bioorg Med Chem Lett, 2004)

Tests used:
[1] = molecular target: T1, Estrogen receptor (Homo sapiens, UniProt Q92731+P03372); assay: Inhibition of 10e-9 M E2 stimulated transcriptional activation in ER+MCF-7/2a breast cancer cells; assay type: functional, cell-based; conditions: cancer cell lines
[2] = molecular target: T1, Estrogen receptor; assay: Inhibition of 10e-9 M E2 stimulated MCF-7 breast cancer cell proliferation; assay type: functional, cell-based; conditions: cancer cell lines
[3] = molecular target: T1, Estrogen receptor; assay: Inhibition of ER+ MCF-7 breast cancer cell proliferation over 200 hr; conditions: cancer cell lines
[4] = molecular target: T1, Estrogen receptor; conditions: Cancer cell lines, at 10 µM
Description: Inhibition of ER-MDA-MB 231 breast cancer cell proliferation over 96 hr at 10 uM

[5] = molecular target: T1, Estrogen receptor; conditions: Cancer cell lines, at 5 µM
Description: Inhibition of ER-MDA-MB 231 breast cancer cell proliferation over 96 hr at 5 uM

SMILES	IC50 [1]	IC50 [2]	IC50 [3]	T/C [4]	T/C [5]
CCCCCS(=O)(=O)CCCCCCCCCC/C(=C(/CC)c1ccc(O)cc1)c1ccc(O)cc1	0.13 µM	0.1 µM	0.0051 µM	-4%	94%
CCCCCSCCCN(C)C(=O)CCCCC/C(=C(/CC)c1ccc(O)cc1)c1ccc(O)cc1	0.6 µM	1.9 µM			
CCCCCS(=O)(=O)CCCCCCCCCC/C(=C(/CC)c1cccc(O)c1)c1ccc(O)cc1	0.05 µM	0.11 µM	0.0061 µM	32%	90%
CC/C(=C(/CCCCCC(=O)N(C)CCCSCCCC(F)(F)C(F)(F)F)c1ccc(O)cc1)c1ccc(O)cc1	0.31 µM	0.7 µM			
CCCCCSCCCCCCCCCC/C(=C(/CC)c1ccc(O)cc1)c1cccc(O)c1	1.2 µM	2.1 µM			
CC/C(=C(/CCCCCCN(C)CCCSCCCC(F)(F)C(F)(F)F)c1ccc(O)cc1)c1ccc(O)cc1	0.01 µM	0.007 µM	0.00022 µM	-15%	-15%
CCCCCSCCCCCCCCCC/C(=C(/CC)c1ccc(O)cc1)c1ccc(O)cc1	0.79 µM	1.4 µM			
CCCCCSCCCN(C)CCCCCC/C(=C(/CC)c1ccc(O)cc1)c1ccc(O)cc1	0.01 µM	0.01 µM	0.00075 µM	-25%	75%
CCCCCSCCCCCCCCCC/C(=C(/CC)c1cccc(O)c1)c1ccc(O)cc1	0.2 µM	0.59 µM			
C[C@]12CC[C@@H]3c4ccc(O)cc4C[C@@H](CCCCCCCCC[S+]([O-])CCCC(F)(F)C(F)(F)F)[C@H]3[C@@H]1CC[C@@H]2O (some centres not stated)				95%	93%
CCCCCS(=O)(=O)CCCCCCCCCC/C(=C(/CC)c1ccc(O)cc1)c1cccc(O)c1	0.37 µM	0.27 µM	0.049 µM	-7%	96%
CCCCCS(=O)(=O)CCCCCCCCCCn1c(-c2ccc(O)cc2)c(C)c2cc(O)ccc21	0.02 µM	0.05 µM	0.0014 µM	-2%	84%
